US12098148B2, “Therapeutic compounds” (C4X Discovery Limited, priority 2018, dated 2024)
Like-named read-outs stand apart in the source and are kept apart here.

Legend:
[1] = biological target: T1, human KEAP1 (N-term, residues 321-609) (Homo sapiens, UniProt Q14145); assay: biochemical;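 also: fluorescence polarization competition assay of Kelch domain binding to NRF2, 12-point 1:3 dilution series from 10 µM, read after 1 h at room temperature, floor 10 nM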
Procedure: (§1) Biological Assays KEAP1 Kelch Fluorescence Polarization (FP) Assay Method
(§2) Inhibition of the Kelch domain-NRF2 interaction was determined using a fluorescence polarization-based competition assay in a black 384-well microplate. Compounds were tested at a starting concentration of 10 μM serially diluted 1:3 to generate a 12-point dose response curve on the Biomek FX robot.
(§3) After 1 h at room temperature, fluorescence polarization (excitation 470 nm/emission 530 nm) was measured using an Envision plate reader. IC50 values were determined by fitting the data to a four parameter logistic fit using XLfit or XE Runner within ActivityBase.

[2] = test system: NQO1 mRNA in BEAS-2B cells; assay: Beas2B NQO1 mRNA cell based assay; design: species or system human; details: 24 h compound treatment, increase in NQO1 mRNA vs vehicle (0.1% DMSO), read-out: EC50
In short: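 BEAS-2B human bronchial epithelial cells exposed to compound for 24 h at 37 °C, 5% CO2. NQO1 mRNA measured by one-step TaqMan RT-qPCR on unpurified lysates, normalized to β-actin; relative expression by ΔΔCT method.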

[3] = biological target: T1, human KEAP1 (N-term, residues 321-609)
Procedure: as §1, §2, §3

T1 sequence (Q14145 321-609): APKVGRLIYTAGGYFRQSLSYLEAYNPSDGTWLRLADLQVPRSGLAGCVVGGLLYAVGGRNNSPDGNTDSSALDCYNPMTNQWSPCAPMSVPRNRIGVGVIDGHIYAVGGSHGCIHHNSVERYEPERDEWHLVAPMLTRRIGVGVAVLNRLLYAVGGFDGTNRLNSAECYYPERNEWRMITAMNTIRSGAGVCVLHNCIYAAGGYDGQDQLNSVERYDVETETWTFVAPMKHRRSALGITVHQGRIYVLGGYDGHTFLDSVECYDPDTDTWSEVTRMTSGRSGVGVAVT

With `Cn1nnc(COc2ccc(Cl)c3c2[C@@H](CN2CC4(CC4)CC2=O)N(C(=O)[C@@H]2C[C@@H](O)CC[C@]2(C)C(=O)O)CC3)c1C(F)F` [Example 220, (1S,2R,4S)-2-((S)-5-chloro-8-((5-(difluoromethyl)-1-methyl-1H-1,2,3-triazol-4-yl)methoxy)-1-((6-oxo-5-azaspiro[2.4]heptan-5-yl)methyl)-1,2,3,4-tetrahydroisoquinoline-2-carbonyl)-4-hydroxy-1-methylcyclohexane-1-carboxylic acid] as the molecule, how does the IC50 [1] read?
Its IC50 is 7 nM.

What about the EC50 ([2]; Homo sapiens, BEAS-2B, 24 h) of the same molecule?
The EC50 was 15 nM.

How did the IC50 [1] turn out when `Cn1nnc(COc2ccc(Cl)c3c2[C@@H](CN2CC4(CC4)CC2=O)N(C(=O)[C@@H]2CC[C@H](O)C[C@]2(C)C(=O)O)CC3)c1C(F)F` [Example 223, (1S,2R,5S)-2-((S)-5-chloro-8-((5-(difluoromethyl)-1-methyl-1H-1,2,3-triazol-4-yl)methoxy)-1-((6-oxo-5-azaspiro[2.4]heptan-5-yl)methyl)-1,2,3,4-tetrahydroisoquinoline-2-carbonyl)-5-hydroxy-1-methylcyclohexane-1-carboxylic acid] was run?
The IC50 was 5 nM.

And the EC50 ([2]; Homo sapiens, BEAS-2B, 24 h)?
Its EC50 is 15 nM.

Which results are given for `Cn1nnc(COc2ccc(Cl)c3c2[C@@H](CN2CC4(CC4)CC2=O)N(C(=O)[C@@H]2CC[C@@H](O)C[C@]2(C)C(=O)O)CC3)c1C(F)F` [Example 224, (1S,2R,5R)-2-((S)-5-chloro-8-((5-(difluoromethyl)-1-methyl-1H-1,2,3-triazol-4-yl)methoxy)-1-((6-oxo-5-azaspiro[2.4]heptan-5-yl)methyl)-1,2,3,4-tetrahydroisoquinoline-2-carbonyl)-5-hydroxy-1-methylcyclohexane-1-carboxylic acid]?
IC50 [1]: 5.8 nM; EC50 ([2]; Homo sapiens, BEAS-2B, 24 h): 42 nM

`Cn1nnc(COc2ccc(Cl)c3c2[C@@H](CN2CC4(CC4)CC2=O)N(C(=O)[C@@H]2C[C@H](O)CC[C@]2(C)C(=O)O)CC3)c1C(F)F` [Example 225, (1S,2R,4R)-2-((S)-5-chloro-8-((5-(difluoromethyl)-1-methyl-1H-1,2,3-triazol-4-yl)methoxy)-1-((6-oxo-5-azaspiro[2.4]heptan-5-yl)methyl)-1,2,3,4-tetrahydroisoquinoline-2-carbonyl)-4-hydroxy-1-methylcyclohexane-1-carboxylic acid] was tested. Which IC50 [1] did it give?
Its IC50 is 6.5 nM.

And the EC50 ([2]; Homo sapiens, BEAS-2B, 24 h)?
The EC50 was 110 nM.

Which results are given for `Cn1nnc(COc2ccc(Cl)c3c2[C@@H](CN2CC4(CC4)CC2=O)N(C(=O)[C@@H]2CCCO[C@@H]2C(=O)O)CC3)c1C(F)F` [Example 226, (2S,3R)-3-((S)-5-chloro-8-((5-(difluoromethyl)-1-methyl-1H-1,2,3-triazol-4-yl)methoxy)-1-((6-oxo-5-azaspiro[2.4]heptan-5-yl)methyl)-1,2,3,4-tetrahydroisoquinoline-2-carbonyl)tetrahydro-2H-pyran-2-carboxylic acid]?
IC50 [1]: 5 nM; EC50 ([2]; Homo sapiens, BEAS-2B, 24 h): 14 nM

What does the source list for “(1S,2R)-2-((S)-8- ((2,5-bis (difluoromethyl)-2H- 1,2,3-triazol-4-yl) methoxy)-5-chloro-1 ((2-oxopyrrolidin-1- yl)methyl)-1,2,3,4- tetrahydroisoquinoline- 2-carbonyl)-1- methylcyclohexane-1- carboxylic acid [Example 139]”?
IC50 [3]: 5.7 nM; EC50 [2]: 140 nM

For “(1S,2R)-2-((S)- 8-((1,5-bis (difluoromethyl)- 1H-1,2,3-triazol-4-yl) methoxy)-5-chloro-1- ((2-oxopyrrolidin-1- yl)methyl)-1,2,3,4- tetrahydroisoquinoline- 2-carbonyl)-1- methylcyclohexane- 1-carboxylic acid [Example 193]”, which IC50 [3] is on record?
The IC50 was 7.7 nM.

And the EC50 [2]?
Its EC50 is 1.8 nM.
